Results published in article PMC13371181, “A paracrine-to-autocrine shunt of GREM1 fuels colorectal cancer metastasis via ACVR1C” (Molecular Cancer, 2026).
“Also recorded” adds a separate entry of the source. Peptide text beside a SMILES is read from it.

Assays:
[1] = test system: GREM1; details: monoclonal antibodies; cited from earlier work
Source text: The advent of cancer genomics and precision medicine has enabled targeted therapies for advanced CRC, with agents against VEGF, EGFR, BRAF V600E, and HER2 showing efficacy in selected patient subsets. However, issues like limited bioavailability, resistance, and narrow indications restrict their broader use. Unlike mutation-specific targets, GREM1 is a widely expressed cytokine with sustained, context-dependent activity, making it a promising and potentially broadly applicable therapeutic target in CRC. Therapeutic targeting of GREM1 to date has focused largely on full neutralization str ...

[2] = test system: GREM1–ACVR1C; assay: Pull-down assay, blocking of GREM1–ACVR1C-ECD binding; design: species or system human; details: GREM1-His and ACVR1C-ECD-Fc, Coomassie Brilliant Blue
Protocol: Protein pull-down assay was performed using purified recombinant human His-tagged GREM1 protein and recombinant human ACVR1C-ECD and Fc chimera protein. Protein was enriched by Pierce Protein A magnetic beads (MCE, HY-K0202) or Ni Sepharose 6 Fast Flow (GE, 17531801) following the manufacturer’s instructions. Pulled-down proteins were detected by Coomassie Brilliant Blue staining.

[3] = molecular target: T1, GREM1 (Homo sapiens, UniProt O60565); assay: MST binding of ACVR1C peptide to GREM1-His; details: GREM1 for ACVR1C peptide versus ACVR1C-ECD
T1 construct: His; purchased R&D 5190-GR
T1 sequence (O60565 25-184): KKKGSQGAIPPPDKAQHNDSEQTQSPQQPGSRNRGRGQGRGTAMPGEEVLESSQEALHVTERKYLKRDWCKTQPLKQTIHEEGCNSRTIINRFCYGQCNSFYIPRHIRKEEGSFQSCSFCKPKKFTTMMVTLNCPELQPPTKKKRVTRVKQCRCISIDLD
Protocol: MST was carried out on a Monolith NT.115 instrument (NanoTemper Technologies GmbH, MO-L011). To evaluate ACVR1C-ECD or ACVR1C peptide or ACVR1C-ECD-double mutant (E85A/T101A) binding to GREM1-His or ACTIVIN B-His, an increasing concentration of purified ACVR1C-ECD-Fc protein (0–27.5 µM) or ACVR1C peptide (0–2.3 µM) or ACVR1C-ECD-double mutant (0–27.5 µM) was incubated with 50 nM red-fluorescently labeled (NanoTemper Technologies GmbH, MO-L011) GREM1-His protein (R&D, 5190-GR) or ACTIVIN B-His protein (SinoBiological, 10814-H08H). Experiments were carried out in a PBS buffer pH 7.4 using premium capillaries (NanoTemper Technologies GmbH, MO-K025).

[4] = test system: HCT116-luc cells; assay: Spleen-to-liver metastasis model, HCT116-luc (pLV-GREM1) in NOG mice; assay type: in vivo, human cells in NOG mice; details: HCT116-luc (pLV-GREM1) injected in the spleen, ACVR1C peptide 10 mg/kg i.v. (tail vein) every other day from 48 h after cell injection, IVIS, n = 5 mice per group
Protocol: For spleen-to-liver metastasis model, 5 × 10^5 MC38-luc cells or MC38-luc (pLV-Grem1) cells were resuspended in 50 µL of PBS and injected into the spleen of GD mice or control mice (Grem1-CreER^T2/Rosa-LSL-DTA mice) (n = 5 mice in each group). 5 × 10^5 HCT116-luc cells carrying a pLV or pLV-GREM1 were resuspended in 50 µL of PBS and intrasplenically injected into NOG mice (n = 5 mice in each group). ACVR1C peptide was administered via tail vein injection at a dose of 10 mg/kg once every other day.

Row | Molecule | efficacy in preclinical models [1] | blocking of GREM1–ACVR1C binding [2] | affinity compared with ACVR1C-ECD [3] | liver metastasis [4] | liver metastasis ([4]; listed as GREM1-blocking peptide)
1 | Ginisortamab: fully humanized anti-GREM1 monoclonal antibody | have shown efficacy in preclinical models | – | – | – | –
2 | CC[C@H](C)[C@H](NC(=O)[C@H](CC(N)=O)NC(=O)[C@H](CC(N)=O)NC(=O)[C@H](CS)NC(=O)[C@H](Cc1ccccc1)NC(=O)[C@H](CC(=O)O)NC(=O)[C@@H](NC(=O)[C@H](Cc1ccccc1)NC(=O)[C@H](CS)NC(=O)[C@H](CS)NC(=O)[C@H](CCC(=O)O)NC(=O)[C@@H](N)[C@@H](C)O)[C@@H](C)O)C(=O)N[C@H](C(=O)N[C@@H](CC(C)C)C(=O)N[C@@H](Cc1c[nH]cn1)C(=O)N[C@@H](CC(C)C)C(=O)N1CCC[C@H]1C(=O)N[C@H](C(=O)N[C@@H](C)C(=O)O)[C@@H](C)O)[C@@H](C)O [ACVR1C peptide] (H-TECCFTDFCNNITLHLPTA-OH; N-terminus and C-terminus assumed) | – | significantly blocked the GREM1–ACVR1C binding; also recorded: blocked the interaction between GREM1 and ACVR1C-ECD | comparable to that for the ACVR1C-ECD | effectively suppressed the increase in liver metastasis induced by tumor-specific GREM1 overexpression | significantly impairs CRC metastasis in vivo
